Experimental findings from patent US20240360178A1, “MACROCYCLIC IMMUNOMODULATORS” (Bristol-Myers Squibb Company, priority 2021, published 2024) are described below.

SMILES strings stand for the structures. Positions of bridges follow the written chain, without caps; N, C: chain ends. Non-standard residues stand in square brackets, D forms with d. Residues, ends and D or L forms follow the SMILES beside them. *: point of attachment. Bip = N[C@@H](Cc1ccc(-c2ccccc2)cc1)C(=O)O; Phe(3-Me) = Cc1cccc(C[C@H](N)C(=O)O)c1; NMeF = CN[C@@H](Cc1ccccc1)C(=O)O; Cha = N[C@@H](CC1CCCCC1)C(=O)O; Cit = NC(=O)NCCC[C@H](N)C(=O)O; Carboxymethyl = O=C(O)C*; NMeA = CN[C@@H](C)C(=O)O; Sar = CNCC(=O)O

The test deals with T1, human PD-1 (Jurkat-PD-1 cells) / PE-labeled human PD-L1-Ig (Homo sapiens, UniProt Q15116).
T1 construct: expressed in transfected cells; host or cells: Jurkat cell line over-expressing human PD-1
T1 sequence (Q15116 25-288): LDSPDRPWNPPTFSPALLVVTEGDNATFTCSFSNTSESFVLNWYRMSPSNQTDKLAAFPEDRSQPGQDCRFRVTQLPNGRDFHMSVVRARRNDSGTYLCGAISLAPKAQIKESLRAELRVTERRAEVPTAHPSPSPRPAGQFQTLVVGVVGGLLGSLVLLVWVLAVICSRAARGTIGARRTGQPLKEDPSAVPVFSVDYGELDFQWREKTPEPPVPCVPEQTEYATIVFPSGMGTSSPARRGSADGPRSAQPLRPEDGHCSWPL
In words: Jurkat-PD-1 Cell Binding High-Content Screening Assay (CBA); Jurkat hPD1-PDL1 assay. The following applies: Jurkat cell line over-expressing human PD-1; PE-labeled PD-L1-Ig 20 nM final; compound incubated 2 hours at 37° C.; read-out: Jurkat HPD1-PDL1 IC50. The protocol:
The ability of the compounds of formula (I) to bind to PD-1 was investigated using a Jurkat-PD-1 Cell Binding High-Content Screening Assay.
Jurkat-PD-1 Cell Binding High-Content Screening Assay (CBA)
Phycoerythrin (PE) was covalently linked to the Ig epitope tag of human PD-L1-Ig and fluorescently-labeled PD-L1-Ig was used for binding studies with a Jurkat cell line over-expressing human PD-1 (Jurkat-PD-1). Briefly, 8×10^3 Jurkat-hPD-1 cells were seeded into 384 well plates in 20 μL of DMEM supplemented with 10% fetal calf serum. 100 nL of compound was added to cells followed by incubation at 37° C. for 2 hours. Then, 5 μL of PE-labeled PD-L1-Ig (20 nM final), diluted in DMEM supplemented with 10% fetal calf serum. […] Data was collected and processed using a Cell Insight NXT High Content Imager and associated software.

A word on the IC50: it is the concentration that gives 50% inhibition. Regarding `Cc1cccc(C[C@@H]2NC(=O)[C@H](Cc3ccccc3)NC(=O)CSC[C@@H](C(=O)N[C@@H](C)C(N)=O)NC(=O)[C@H](CO)NC(=O)[C@H](C(C)C)NC(=O)[C@H](CC(C)C)NC(=O)[C@H](CC(N)=O)NC(=O)[C@H]3CCCN3C(=O)[C@H](C)N(C)C(=O)[C@H](C(C)C)NC(=O)[C@H](Cc3ccc(-c4ccccc4)cc3)NC(=O)[C@H](CC(C)C)NC(=O)[C@H](Cc3c[nH]c4ccccc34)NC(=O)[C@H](CC(=O)O)NC2=O)c1` [Example 1033] ({CH2CO}-F[Phe(3-Me)]DWL[Bip]V[NMeA][dP]NLVSCA-NH2; thioether N-14), the 50% inhibitory concentration (IC50) is 60 nM. The same measure for `CC(C)C[C@@H]1NC(=O)[C@H](CCCNC(=N)N)NC(=O)[C@H](Cc2ccccc2)N(C)C(=O)[C@H](C)N(C)C(=O)[C@H](CCCNC(=N)N)NC(=O)[C@H](Cc2ccc(-c3ccccc3)cc2)NC(=O)[C@H](C(C)C)NC(=O)[C@H](Cc2c[nH]c3ccccc23)NC(=O)[C@H](CC(=O)O)NC(=O)[C@H](Cc2ccc(O)cc2)NC(=O)[C@H](CC(N)=O)NC(=O)CSC[C@@H](C(=O)N[C@@H](C)C(N)=O)NC(=O)[C@H](CO)NC(=O)[C@H](C(C)C)NC1=O` [Example 1301] ({CH2CO}-NYDWV[Bip]R[NMeA][NMeF]RLVSCA-NH2; thioether N-14): 150 nM. Consider `CC(C)C[C@@H]1NC(=O)[C@H](CCCNC(=N)N)NC(=O)[C@H](Cc2ccccc2)N(C)C(=O)[C@H](C)N(C)C(=O)[C@H](CCCNC(N)=O)NC(=O)[C@H](Cc2ccc(-c3ccccc3)cc2)NC(=O)[C@H](C(C)C)NC(=O)[C@H](Cc2c[nH]c3ccccc23)NC(=O)[C@H](CC(=O)O)NC(=O)[C@H](Cc2ccc(O)cc2)NC(=O)[C@H](CC(N)=O)NC(=O)CSC[C@@H](C(=O)NCC(N)=O)NC(=O)[C@H](CO)NC(=O)[C@H](C(C)C)NC1=O` [Example 1381] ({CH2CO}-NYDWV[Bip][Cit][NMeA][NMeF]RLVSCG-NH2; thioether N-14), for which the half-maximal inhibitory concentration (IC50) is 160 nM. The same measure for `CC(C)C[C@@H]1NC(=O)[C@H](Cc2c[nH]c3ccccc23)NC(=O)[C@H](CC(=O)O)NC(=O)[C@H](Cc2ccc(O)cc2)NC(=O)[C@H](Cc2ccccc2)NC(=O)CSC[C@@H](C(=O)N[C@@H](C)C(N)=O)NC(=O)[C@H](CO)NC(=O)[C@H](C(C)C)NC(=O)[C@H](CC(C)C)NC(=O)[C@H](CCCNC(=N)N)NC(=O)[C@H]2CCCN2C(=O)[C@H](C)N(C)C(=O)[C@H](CCCNC(=N)N)NC(=O)[C@H](Cc2ccc(-c3ccccc3)cc2)NC1=O` [Example 1096] ({CH2CO}-FYDWL[Bip]R[NMeA][dP]RLVSCA-NH2; thioether N-14): 280 nM; for `CC(C)C[C@@H]1NC(=O)[C@H](Cc2c[nH]c3ccccc23)NC(=O)[C@H](CC(=O)O)NC(=O)[C@H](Cc2ccc(OCC(=O)O)cc2)NC(=O)[C@H](Cc2cnc[nH]2)NC(=O)CSC[C@@H](C(=O)N[C@@H](C)C(N)=O)NC(=O)[C@H](CO)NC(=O)[C@H](C(C)C)NC(=O)[C@H](CC(C)C)NC(=O)[C@H](CC(N)=O)NC(=O)[C@H]2CCCN2C(=O)[C@H](C)N(C)C(=O)[C@H](C(C)C)NC(=O)[C@H](Cc2ccc(-c3ccccc3)cc2)NC1=O` [Example 1052] ({CH2CO}-HY(Carboxymethyl)DWL[Bip]V[NMeA][dP]NLVSCA-NH2; thioether N-14): 120 nM. With `CC(C)C[C@@H]1NC(=O)[C@H](Cc2c[nH]c3ccccc23)NC(=O)[C@H](CC(=O)O)NC(=O)[C@H](Cc2ccc(O)cc2)NC(=O)[C@H](CC2CCCCC2)NC(=O)CSC[C@@H](C(=O)NCC(N)=O)NC(=O)[C@H](CO)NC(=O)[C@H](C(C)C)NC(=O)[C@H](CC(C)C)NC(=O)[C@H](CC(N)=O)NC(=O)CN(C)C(=O)[C@H](C)N(C)C(=O)[C@H](C(C)C)NC(=O)[C@H](Cc2ccc(-c3ccccc3)cc2)NC1=O` [Example 1117] ({CH2CO}-[Cha]YDWL[Bip]V[NMeA][Sar]NLVSCG-NH2; thioether N-14), the IC50 is 410 nM.
